One may read the IC50 as the concentration at which inhibition is half-maximal.

This is an account of results in publication PMC10180065, “Mechanistic Studies of Arene–Ruthenium(II) Complexes with Carbothioamidopyrazoles as Alternative Cancer Drugs” (Molecules, 2023).

Some results are limits rather than exact numbers.

The test system of the first data set is HT29. The experiment in a line: MTT cytotoxicity, HT29. The class given is cell-based, human. The note with it: 48 h incubation, read-out: Cytotoxic effect, IC50. The method, then: (§1) Cytotoxicity was evaluated against fifteen adherent human cancer cell lines using the MTT test: colorectal adenocarcinoma cells Caco2 (ATCC® HTB-37™), colorectal adenocarcinoma cells HT29 (ATCC® HTB-38™), colon colorectal carcinoma HCT116 (ATCC® CCL-247™), colon adenocarcinoma COLO205 (ATCC® CCL-222™), colorectal adenocarcinoma SW620 (ATCC® CCL-227™), colorectal adenocarcinoma grade IV LoVo (ATCC® CCL-229™), hepatocellular carcinoma Hep 3b (ATCC® HB-8064™), endometrium adenocarcinoma HEC1A (ATCC® HTB-112™), Ishikawa (99040201; Sigma–Aldrich Sigma, St. Louis, MO, USA), cervical adenocarcinoma cells HeLa (ATCC® CCL-2™), lung epithelial carcinoma A549 (ATCC® CRM-CCL-185™), breast epithelial adenocarcinoma cell positive for estrogen and progesterone receptors MCF7 (ATCC® HTB-22™) and negative for expression of estrogen receptor HCC38 (ATCC® CRL-2314™), acute promyelocytic leukemia HL-60 (ATCC® CCL-240™), skin melanoma WM115 (ATCC® CRL-1676™), and 1 suspension cancer cell line: acute lymphoblastic leukemia NALM6 (purchased from the German Collection of Microorganisms and Cell Cultures). HT29, NALM6, HCC-38 and HL-60 cells were cultured in RPMI 1640 medium (Thermo Fisher Scientific, Waltham, MA, USA) supplemented with 10% fetal bovine serum and antibiotic (gentamicin 25 μg ml^−1) (Gibco, Grand Island, New York, NY, USA). For the remaining tumor cell lines, Dulbecco’s minimal essential medium (DMEM, Lonza, Visp, Switzerland) supplemented with 10% fetal bovine serum and antibiotic instead of RPMI 1640 was used. In addition, Human Microvascular Endothelial Cells (HMEC1), which were obtained from the American Type Culture Collection (Manassas, VA, USA), were used as a model of normal cells. HMEC-1 were cultured in MCDB131 medium (Corning Life Sciences, Corning, NY, USA), supplemented with 10% fetal bovine serum, 10 ng/mL Epidermal Growth Factor (Millipore, Burlington, MA, USA) and 10 mM glutamine (Corning Life Sciences). All cells were grown at 37 °C in humidified atmosphere of 5% CO2 in air. The exponential growth of cells was maintained by regular passaging at 90% confluence three times a week using 0.025% trypsin/EDTA (Gibco, Grand Island, New York, NY, USA).
(§2) The cytotoxicity was tested by a standard MTT [3-(4,5-dimethylthiazol-2-yl)-2,5-diphenyltetrazolium bromide] (Sigma, St. Louis, MO, USA) microplate cell viability assay. The anticancer activity of the investigated compounds was evaluated in vitro on the basis of their ability to inhibit the proliferation of various cancer cells. Exponentially growing cells were seeded a day before the experiment into a 96-well microplate (Nunc, Roskilde, Denmark) at a density up to 6–8 × 10^3 cells/mL (depending on the cell line) and exposed to the test compounds at a wide range of concentrations for 48 h. Subsequently, various concentrations of the studied compounds (10^−7–10^−5 M) freshly prepared in DMSO (final concentration of <0.1% DMSO) and diluted with complete culture medium were added. After 48 h incubation, the cells were immediately subjected to a cell viability assay. At this time point, the number of viable cells in each well was estimated by the MTT test. Briefly, 50 µL (5 mg/mL final concentration) of MTT was added to each microplate well. This procedure was then followed by a three- to four-hour incubation at 37 °C. After incubation, MTT solution was replaced with 100 µL DMSO/well, which solubilized the formazan crystals formed by the dehydrogenases of metabolically active cells. Purple formazan absorbance was measured spectrophotometrically at 570 nm.
Consider `CCc1cc(CC)n(C(N)=S)n1.Cc1ccc(C(C)C)cc1.[Cl-].[Cl][Ru+]` [2b], for which the half-inhibitory concentration (IC50) came out at 107 ± 5.9 µM.

Another data set deals with NALM6. The experiment in a line: MTT cytotoxicity, NALM6. The class given is cell-based, human. The note with it: 48 h incubation, read-out: Cytotoxic effect, IC50. The method, then:
as §1, §2
For `CCc1cc(CC)n(C(N)=S)n1.Cc1ccc(C(C)C)cc1.[Cl-].[Cl][Ru+]` [2b], the IC50 is 40 ± 5.6 µM.

The test system of a further data set is MCF7. The experiment in a line: MTT cytotoxicity, MCF7. The settings on record: 48 h incubation, read-out: Cytotoxic effect, IC50. The class given is cell-based, human. The method, then: as §1, §2
Regarding `CCc1cc(CC)n(C(N)=S)n1.Cc1ccc(C(C)C)cc1.[Cl-].[Cl][Ru+]` [2b], the IC50 turned out to be 82.7 ± 3 µM.

A further data set has as its system Hep 3b. Briefly: MTT cytotoxicity, Hep 3b. Format: cell-based, human. The settings on record: 48 h incubation, read-out: Cytotoxic effect, IC50. Here is the method:
as §1, §2
`CCc1cc(CC)n(C(N)=S)n1.Cc1ccc(C(C)C)cc1.[Cl-].[Cl][Ru+]` [2b]: the IC50 was > 200 µM.

The next data set has as its system Caco2. The experiment in a line: MTT cytotoxicity, Caco2. The class given is cell-based, human. The note with it: 48 h incubation, read-out: Cytotoxic effect, IC50. Here is the method: as §1, §2
In the case of `CCc1cc(CC)n(C(N)=S)n1.Cc1ccc(C(C)C)cc1.[Cl-].[Cl][Ru+]` [2b], the IC50 was > 200 µM.

The test system of another data set is SW620. The experiment in a line: MTT cytotoxicity, SW620. Format: cell-based, human. The note with it: 48 h incubation, read-out: Cytotoxic effect, IC50. Here is the method: as §1, §2
With `CCc1cc(CC)n(C(N)=S)n1.Cc1ccc(C(C)C)cc1.[Cl-].[Cl][Ru+]` [2b], the IC50 was determined as 107 ± 3.4 µM.

The subject of the next data set is A549. The experiment in a line: MTT cytotoxicity, A549. Format: cell-based, human. The settings on record: 48 h incubation, read-out: Cytotoxic effect, IC50. Here is the method: as §1, §2
Consider `CCc1cc(CC)n(C(N)=S)n1.Cc1ccc(C(C)C)cc1.[Cl-].[Cl][Ru+]` [2b], for which the IC50 is > 200 µM.

The next data set concerns LoVo. Briefly: MTT cytotoxicity, LoVo. Format: cell-based, human. The settings on record: 48 h incubation, read-out: Cytotoxic effect, IC50. Here is the method: as §1, §2
In the case of `CCc1cc(CC)n(C(N)=S)n1.Cc1ccc(C(C)C)cc1.[Cl-].[Cl][Ru+]` [2b], the IC50 amounted to 59.7 ± 3.2 µM.

In the next data set the test system is HEC1A. The experiment in a line: MTT cytotoxicity, HEC1A. The class given is cell-based, human. The note with it: 48 h incubation, read-out: Cytotoxic effect, IC50. Here is the method:
as §1, §2
`CCc1cc(CC)n(C(N)=S)n1.Cc1ccc(C(C)C)cc1.[Cl-].[Cl][Ru+]` [2b]: the IC50 turned out to be 36.4 ± 1.7 µM.

In another data set the test system is Ishikawa. Briefly: MTT cytotoxicity, Ishikawa. Format: cell-based, human. The settings on record: 48 h incubation, read-out: Cytotoxic effect, IC50. Here is the method:
as §1, §2
Take `CCc1cc(CC)n(C(N)=S)n1.Cc1ccc(C(C)C)cc1.[Cl-].[Cl][Ru+]` [2b]: the IC50 was found to be 51.4 ± 1.9 µM.

Another data set relates to HCC38. Briefly: MTT cytotoxicity, HCC38. The class given is cell-based, human. The settings on record: 48 h incubation, read-out: Cytotoxic effect, IC50. Here is the method: as §1, §2
Regarding `CCc1cc(CC)n(C(N)=S)n1.Cc1ccc(C(C)C)cc1.[Cl-].[Cl][Ru+]` [2b], the IC50 stood at 63.7 ± 4.4 µM.

The next data set concerns HL60. Briefly: MTT cytotoxicity, HL60. Format: cell-based, human. The settings on record: 48 h incubation, read-out: Cytotoxic effect, IC50. The method, then: as §1, §2
Regarding `CCc1cc(CC)n(C(N)=S)n1.Cc1ccc(C(C)C)cc1.[Cl-].[Cl][Ru+]` [2b], the IC50 came out at 80.8 ± 3.9 µM.

The subject of the next data set is Colo205. The experiment in a line: MTT cytotoxicity, Colo205. The note with it: 48 h incubation, read-out: Cytotoxic effect, IC50. Format: cell-based, human. The method, then: as §1, §2
Take `CCc1cc(CC)n(C(N)=S)n1.Cc1ccc(C(C)C)cc1.[Cl-].[Cl][Ru+]` [2b]: the half-maximal inhibitory concentration (IC50) came out at 115 ± 4.1 µM.

Tested on in the next data set: not listed separately
Briefly: Lipophilicity by RP-TLC. The class given is physicochemical. More on the design: key: RM = log(1/Rf − 1), Rf = a/b. The settings on record: eluent AcCN: H2O at 30–70% v/v, 22 °C. Here is the method: All the experimental solutions of standard substances (0.1 mg/mL) were prepared by dissolving ligands (1a–1d) or ruthenium complexes (2a/3a–2d/3d) in ethanol. Commercially-available octadecyl-modified silica aluminum sheets (20 × 20 cm) were cut into 5 × 10 cm plates. The plates were manually spotted with 1.0 μL of freshly prepared solutions using automatic pipets, 5 mm from each edge. The chromatograms for all compounds (1a/2a/3a–1d/2d/3d) were developed using a horizontal developing chamber and the solvent migration distance was about 4.5 cm. The plates were visually inspected under UV light at 254 nm. Each zone was clearly marked and its distance was manually measured. The RP-TLC analyses of lipophilicity were performed at ambient temperature (22 °C). In this experiment, all measurements were performed in triplicate and the obtained results were used in further calculations. The acetonitrile and water mixtures for ligands 1a–1d and arene–ruthenium(II) complexes 2a/3a–2d/3d were used as mobile phases, with […] content increasing in the range of 30–70% v/v, at 5% intervals. Values of the chromatographic retention coefficient Rf (as shown Formula (1)) and RM (as shown Formula (2)), based on received chromatograms, were calculated and converted as follows:(1) Rf=a/b (2) RM=log1/Rf−1
With `CCc1cc(CC)n(C(N)=S)n1.Cc1ccc(C(C)C)cc1.[Cl-].[Cl][Ru+]` [2b], the “Lipophilicity, RM” value is recorded as 2.59.

The test system of another data set is Hela. Briefly: MTT cytotoxicity, Hela. Format: cell-based, human. The settings on record: 48 h incubation, read-out: Cytotoxic effect, IC50. Here is the method:
as §1, §2
On to `CCc1cc(CC)n(C(N)=S)n1.Cc1ccc(C(C)C)cc1.[Cl-].[Cl][Ru+]` [2b], for which the IC50 amounted to 164 ± 8.5 µM.

The test system of another data set is human microvascular endothelial cell line HMEC1. Briefly: MTT cytotoxicity, normal endothelial cells HMEC1. The class given is cell-based. The note with it: HMEC1 normal endothelial cells, 48 h incubation, read-out: Cytotoxic effect, IC50. Here is the method:
as §1, §2
Regarding `CCc1cc(CC)n(C(N)=S)n1.Cc1ccc(C(C)C)cc1.[Cl-].[Cl][Ru+]` [2b], the IC50 worked out at 125 ± 2.1 µM.

The same data set, now with this note: HMEC-1 vs cancer cells.
Regarding `CCc1cc(CC)n(C(N)=S)n1.Cc1ccc(C(C)C)cc1.[Cl-].[Cl][Ru+]` [2b], the “IC50 for HMEC-1 higher than for cancer cells (selectivity)” value is listed as 3–5 times.

The next data set has as its system WM115. The experiment in a line: MTT cytotoxicity, WM115. Format: cell-based, human. The note with it: 48 h incubation, read-out: Cytotoxic effect, IC50. The method, then:
as §1, §2
Turning to `CCc1cc(CC)n(C(N)=S)n1.Cc1ccc(C(C)C)cc1.[Cl-].[Cl][Ru+]` [2b], the IC50 worked out at 54.9 ± 5.9 µM.
